Results on 15 compounds are retold here after patent US7297704B2, “Cycloalkyfused indole, benzothiophene, benzofuran and idene derivatives” (Wyeth, priority 2005, dated 2007).

Where a name gives a salt, the structure may show the parent alone.

`CCC(C)N(C[C@@H]1CCc2[nH]c3ccc(F)cc3c2C1)C[C@H]1COc2ccc3nc(C)ccc3c2O1.Cl.O` (stereo partly drawn) (hydrate or solvate) [Example 58, N-{[(3R)-6-Fluoro-2,3,4,9-tetrahydro-1H-carbazol-3-yl]methyl}-N-{[(2S)-8-methyl-2,3-dihydro[1,4]dioxino[2,3-f]quinolin-2-yl]methyl}butan-2-amine monohydrochloride monohydrate]: the melting point (usually the temperature of the solid-liquid transition) was 235 to 256 °C.

As to `Cc1ccc2c3c(ccc2n1)OC[C@H](CN(C[C@@H]1CCc2[nH]c4ccc(F)cc4c2C1)C1CCCC1)O3.Cl.O` (hydrate or solvate) [Example 59, N-{[(3R)-6-Fluoro-2,3,4,9-tetrahydro-1H-carbazol-3-yl]methyl}-N-{[(2S)-8-methyl-2,3-dihydro[1,4]dioxino[2,3-f]quinolin-2-yl]methyl}cyclopentanamine monohydrochloride monohydrate], the melting point lay within 225 to 243 °C.

Consider `Cc1ccc2c3c(ccc2n1)OC[C@H](CN(C[C@@H]1CCc2[nH]c4ccc(F)cc4c2C1)C1CCCCC1)O3.Cl.O` (hydrate or solvate) [Example 60, N-{[(3R)-6-fluoro-2,3,4,9-tetrahydro-1H-carbazol-3-yl]methyl}-N-{[(2S)-8-methyl-2,3-dihydro[1,4]dioxino[2,3-f]quinolin-2-yl]methyl}cyclohexanamine monohydrochloride monohydrate], for which the melting point is 207 to 218 °C. As for `Cc1ccc2c3c(ccc2n1)OC[C@H](CN(C[C@H]1CCc2[nH]c4ccc(F)cc4c2C1)C(C)C)O3.Cl.O` (hydrate or solvate) [Example 61, N-{[(3S)-6-Fluoro-2,3,4,9-tetrahydro-1H-carbazol-3-yl]methyl}-N-{[(2S)-8-methyl-2,3-dihydro[1,4]dioxino[2,3-f]quinolin-2-yl]methyl}propan-2-amine monohydrochloride monohydrate], the melting point was in the range of 228 to 240 °C. The compound `CCC(C)N(C[C@H]1CCc2[nH]c3ccc(F)cc3c2C1)C[C@H]1COc2ccc3nc(C)ccc3c2O1.Cl.O` (stereo partly drawn) (hydrate or solvate) [Example 62, N-{[(3S)-6-Fluoro-2,3,4,9-tetrahydro-1H-carbazol-3-yl]methyl}-N-{[(2S)-8-methyl-2,3-dihydro[1,4]dioxino[2,3-f]quinolin-2-yl]methyl}butan-2-amine monohydrochloride monohydrate] gave a melting point of 246 to 257 °C.

Turning to `Cc1ccc2c3c(ccc2n1)OC[C@H](CN(C[C@H]1CCc2[nH]c4ccc(F)cc4c2C1)C1CCCC1)O3.Cl.O` (hydrate or solvate) [Example 63, N-{[(3S)-6-Fluoro-2,3,4,9-tetrahydro-1H-carbazol-3-yl]methyl}-N-{[(2S)-8-methyl-2,3-dihydro[1,4]dioxino[2,3-f]quinolin-2-yl]methyl}cyclopentanamine monohydrochloride monohydrate], the melting point fell in the range of 237 to 254 °C. The compound `Cc1ccc2c3c(ccc2n1)OC[C@H](CN(C[C@H]1CCc2[nH]c4ccc(F)cc4c2C1)C1CCCCC1)O3.Cl.O` (hydrate or solvate) [Example 64, N-{[(3S)-6-Fluoro-2,3,4,9-tetrahydro-1H-carbazol-3-yl]methyl}-N-{[(2S)-8-methyl-2,3-dihydro[1,4]dioxino[2,3-f]quinolin-2-yl]methyl}cyclohexanamine monohydrochloride monohydrate] had a melting point of 202 to 208 °C. For the compound `Cc1ccc2c3c(ccc2n1)OC[C@H](CN(CC1CCc2c(c4cc(F)ccc4n2C)C1)C1CCCC1)O3.Cl.O` (stereo partly drawn) (hydrate or solvate) [Example 66, N-[(6-Fluoro-9-methyl-2,3,4,9-tetrahydro-1H-carbazol-3-yl)methyl]-N-{[(2S)-8-methyl-2,3-dihydro[1,4]dioxino[2,3-f]quinolin-2-yl]methyl}cyclopentanamine monohydrochloride monohydrate], the melting point lay in the range of 206 to 222 °C. `Cc1ccc2c3c(ccc2n1)OC[C@H](CN(CC1CCc2c(c4cc(F)ccc4n2C)C1)C1CCCCC1)O3.Cl.O` (stereo partly drawn) (hydrate or solvate) [Example 67, N-[(6-Fluoro-9-methyl-2,3,4,9-tetrahydro-1H-carbazol-3-yl)methyl]-N-{[(2S)-8-methyl-2,3-dihydro[1,4]dioxino[2,3-f]quinolin-2-yl]methyl}cyclohexanamine monohydrochloride monohydrate]: the melting point lay within 204 to 225 °C. `Cc1ccc2c3c(ccc2n1)OC[C@H](CN(C)C[C@H]1CCc2c(c4cc(F)ccc4n2C)C1)O3.Cl.O` (hydrate or solvate) [Example 68, {[(3S)-6-Fluoro-9-methyl-2,3,4,9-tetrahydro-1H-carbazol-3-yl]methyl}methyl{[(2S)-8-methyl-2,3-dihydro[1,4]dioxino[2,3-f]quinolin-2-yl]methyl}amine monohydrochloride monohydrate] came in with a melting point of 248 to 258 °C. With `Cc1ccc2c3c(ccc2n1)OC[C@H](CN(C)C[C@@H]1CCc2c(c4cc(F)ccc4n2C)C1)O3.Cl.O` (hydrate or solvate) [Example 69, {[(3R)-6-Fluoro-9-methyl-2,3,4,9-tetrahydro-1H-carbazol-3-yl]methyl}methyl{[(2S)-8-methyl-2,3-dihydro[1,4]dioxino[2,3-f]quinolin-2-yl]methyl}amine monohydrochloride monohydrate] the figure was 244 to 256 °C; with `Cc1ccc2c3c(ccc2n1)OC[C@H](CNC1CCc2c([nH]c4ccc(F)cc24)C1)O3` (mixture of isomers) (as salt: hydrochloride) [Example 46, 6-Fluoro-N-{[(2S)-8-methyl-2,3-dihydro[1,4]dioxino[2,3-f]quinolin-2-yl]methyl}-2,3,4,9-tetrahydro-1H-carbazol-2-amine], 226 to 228 °C (dec.); with `Cc1ccc2c3c(ccc2n1)OC[C@H](CNC[C@H]1CCc2[nH]c4ccccc4c2C1)O3` (single isomer, unassigned) (as salt: hydrochloride) [Example 100a], 202 to 205 °C (dec.). With `Cc1ccc2c3c(ccc2n1)OC[C@H](CNC[C@@H]1CCc2[nH]c4ccccc4c2C1)O3` (single isomer, unassigned) (as salt: hydrochloride) [Example 100b], the melting point was 218 to 221 °C (dec.). On to `Cc1ccc2c3c(ccc2n1)OCC(CNCC1CCc2[nH]c4ccc(Cl)cc4c2C1)O3` (stereo not drawn) [Example 85, (6-Chloro-2,3,4,9-tetrahydro-1H-carbazol-3-ylmethyl)-(8-methyl-2,3-dihydro-[1,4]dioxino[2,3-f]quinolin-2-ylmethyl)-amine], for which the melting point was 235 to 237 °C.
